From publication PMC10176470, “Engaging a Non-catalytic Cysteine Residue Drives Potent and Selective Inhibition of Caspase-6” (Journal of the American Chemical Society, 2023)

Key:
Assay type in all cases: cell-based
[1] = target: proteins of HEK293T cells transiently overexpressing caspase-6 (Homo sapiens, UniProt O15355); conditions: exp_ref Probe; protein PPM1G (O15355); analysis C6
[2] = target: proteins of HEK293T cells transiently overexpressing caspase-6 (Homo sapiens, UniProt P04406); conditions: exp_ref Probe; protein GAPDH (P04406); analysis C6
[3] = target: proteins of HEK293T cells transiently overexpressing caspase-6 (Homo sapiens, UniProt P12956); conditions: protein XRCC6 (P12956)
Chain of proteins of HEK293T cells transiently overexpressing caspase-6 (Homo sapiens, UniProt P12956) (P12956 whole entry): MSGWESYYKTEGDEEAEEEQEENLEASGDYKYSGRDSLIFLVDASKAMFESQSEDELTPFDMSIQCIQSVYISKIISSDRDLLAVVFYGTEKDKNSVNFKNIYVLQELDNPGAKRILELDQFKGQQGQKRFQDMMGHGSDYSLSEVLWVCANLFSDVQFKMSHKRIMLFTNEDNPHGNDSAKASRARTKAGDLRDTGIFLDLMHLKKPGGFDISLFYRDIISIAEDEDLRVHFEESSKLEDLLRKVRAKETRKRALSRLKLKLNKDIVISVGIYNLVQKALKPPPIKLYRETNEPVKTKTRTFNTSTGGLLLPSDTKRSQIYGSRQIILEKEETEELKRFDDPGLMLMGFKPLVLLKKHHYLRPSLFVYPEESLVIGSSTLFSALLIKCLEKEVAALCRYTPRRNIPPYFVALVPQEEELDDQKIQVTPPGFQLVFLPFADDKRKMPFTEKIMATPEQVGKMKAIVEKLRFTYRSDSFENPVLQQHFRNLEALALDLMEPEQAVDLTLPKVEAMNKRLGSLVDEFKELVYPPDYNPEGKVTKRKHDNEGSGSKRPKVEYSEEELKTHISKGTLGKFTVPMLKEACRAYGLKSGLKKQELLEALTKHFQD

[4] = target: proteins of HEK293T cells transiently overexpressing caspase-6 (Homo sapiens, UniProt P22626); conditions: exp_ref Probe; protein HNRNPA2B1 (P22626); analysis C6
[5] = target: proteins of HEK293T cells transiently overexpressing caspase-6 (Homo sapiens, UniProt P31930); conditions: Probe; protein UQCRC1 P31930
[6] = target: proteins of HEK293T cells transiently overexpressing caspase-6 (Homo sapiens, UniProt P33176); conditions: Probe; protein KIF5B P33176
[7] = target: proteins of HEK293T cells transiently overexpressing caspase-6 (Homo sapiens, UniProt P38606); conditions: exp_ref Probe; protein ATP6V1A (P38606); analysis C6
[8] = target: proteins of HEK293T cells transiently overexpressing caspase-6 (Homo sapiens, UniProt P46782); conditions: protein RPS5 (P46782)
[9] = target: proteins of HEK293T cells transiently overexpressing caspase-6 (Homo sapiens, UniProt P50914); conditions: exp_ref Probe; protein RPL14 (P50914); analysis C6
[10] = target: proteins of HEK293T cells transiently overexpressing caspase-6 (Homo sapiens, UniProt P60842); conditions: exp_ref Probe; protein EIF4A1 (P60842); analysis C6
Chain of proteins of HEK293T cells transiently overexpressing caspase-6 (Homo sapiens, UniProt P60842) (P60842 whole entry): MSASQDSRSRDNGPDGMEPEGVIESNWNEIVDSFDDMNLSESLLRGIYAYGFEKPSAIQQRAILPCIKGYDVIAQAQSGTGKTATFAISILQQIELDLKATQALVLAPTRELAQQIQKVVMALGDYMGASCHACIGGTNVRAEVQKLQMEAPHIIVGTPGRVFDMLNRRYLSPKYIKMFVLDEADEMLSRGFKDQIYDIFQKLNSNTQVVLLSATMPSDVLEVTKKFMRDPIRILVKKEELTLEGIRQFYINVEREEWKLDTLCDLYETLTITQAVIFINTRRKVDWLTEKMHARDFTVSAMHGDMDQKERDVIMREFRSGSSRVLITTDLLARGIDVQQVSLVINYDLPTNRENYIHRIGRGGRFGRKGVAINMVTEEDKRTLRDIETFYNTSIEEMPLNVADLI

[11] = target: proteins of HEK293T cells transiently overexpressing caspase-6 (Homo sapiens, UniProt P63241); conditions: exp_ref Probe; protein EIF5A (P63241); analysis C6
Chain of proteins of HEK293T cells transiently overexpressing caspase-6 (Homo sapiens, UniProt P63241) (P63241 whole entry): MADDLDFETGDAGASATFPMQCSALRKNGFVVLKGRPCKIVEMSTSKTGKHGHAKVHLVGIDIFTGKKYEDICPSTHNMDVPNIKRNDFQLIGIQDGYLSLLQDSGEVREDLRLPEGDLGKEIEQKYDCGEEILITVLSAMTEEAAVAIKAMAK

[12] = target: T1, proteins of HEK293T cells transiently overexpressing caspase-6 (Homo sapiens, UniProt Q00325); conditions: protein SLC25A3 (Q00325)
T1 sequence (Q00325 50-362): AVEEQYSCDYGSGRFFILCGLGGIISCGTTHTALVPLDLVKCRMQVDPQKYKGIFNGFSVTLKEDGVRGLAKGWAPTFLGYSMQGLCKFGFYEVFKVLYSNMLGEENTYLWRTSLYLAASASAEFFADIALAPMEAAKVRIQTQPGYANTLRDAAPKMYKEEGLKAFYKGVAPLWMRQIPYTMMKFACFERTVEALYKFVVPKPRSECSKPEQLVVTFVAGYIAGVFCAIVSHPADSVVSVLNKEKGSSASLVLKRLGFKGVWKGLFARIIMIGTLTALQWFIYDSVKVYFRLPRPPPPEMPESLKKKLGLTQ

[13] = target: proteins of HEK293T cells transiently overexpressing caspase-6 (Homo sapiens, UniProt Q00610); conditions: exp_ref Probe; protein CLTC (Q00610); analysis C6
[14] = target: proteins of HEK293T cells transiently overexpressing caspase-6 (Homo sapiens, UniProt Q02543); conditions: exp_ref Probe; protein RPL18A (Q02543); analysis C6
[15] = target: proteins of HEK293T cells transiently overexpressing caspase-6 (Homo sapiens, UniProt Q06830); conditions: exp_ref Probe; protein PRDX1 (Q06830); analysis C6
Chain of proteins of HEK293T cells transiently overexpressing caspase-6 (Homo sapiens, UniProt Q06830) (Q06830 whole entry): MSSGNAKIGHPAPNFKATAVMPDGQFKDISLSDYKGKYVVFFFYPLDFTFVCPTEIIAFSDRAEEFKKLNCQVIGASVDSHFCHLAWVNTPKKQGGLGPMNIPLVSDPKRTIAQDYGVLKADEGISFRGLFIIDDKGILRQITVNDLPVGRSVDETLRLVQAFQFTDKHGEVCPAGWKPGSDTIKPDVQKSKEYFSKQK

[16] = target: proteins of HEK293T cells transiently overexpressing caspase-6 (Homo sapiens, UniProt Q13200); conditions: protein PSMD2 (Q13200)
Chain of proteins of HEK293T cells transiently overexpressing caspase-6 (Homo sapiens, UniProt Q13200) (Q13200 whole entry): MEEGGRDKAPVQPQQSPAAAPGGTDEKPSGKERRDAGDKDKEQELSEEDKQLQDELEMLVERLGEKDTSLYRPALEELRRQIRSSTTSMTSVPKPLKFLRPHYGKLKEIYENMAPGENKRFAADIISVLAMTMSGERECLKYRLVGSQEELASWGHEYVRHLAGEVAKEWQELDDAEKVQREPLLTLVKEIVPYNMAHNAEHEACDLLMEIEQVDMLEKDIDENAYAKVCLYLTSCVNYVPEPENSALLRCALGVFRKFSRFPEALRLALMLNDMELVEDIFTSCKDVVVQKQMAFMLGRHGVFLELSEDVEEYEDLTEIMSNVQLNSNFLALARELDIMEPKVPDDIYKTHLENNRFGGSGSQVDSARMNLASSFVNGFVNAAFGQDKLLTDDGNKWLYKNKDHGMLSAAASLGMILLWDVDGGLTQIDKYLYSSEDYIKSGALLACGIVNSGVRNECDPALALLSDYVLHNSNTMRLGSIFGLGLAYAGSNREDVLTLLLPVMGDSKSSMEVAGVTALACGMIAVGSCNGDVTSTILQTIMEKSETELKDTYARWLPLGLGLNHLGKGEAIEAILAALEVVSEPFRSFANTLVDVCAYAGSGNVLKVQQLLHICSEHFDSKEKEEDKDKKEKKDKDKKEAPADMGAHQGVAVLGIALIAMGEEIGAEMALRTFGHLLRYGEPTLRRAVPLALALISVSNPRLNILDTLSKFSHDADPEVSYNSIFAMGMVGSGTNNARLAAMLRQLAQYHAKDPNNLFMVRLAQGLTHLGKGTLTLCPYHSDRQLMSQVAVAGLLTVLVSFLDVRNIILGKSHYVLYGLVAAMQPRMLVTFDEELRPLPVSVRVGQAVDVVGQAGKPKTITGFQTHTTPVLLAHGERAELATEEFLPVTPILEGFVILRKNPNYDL

[17] = target: proteins of HEK293T cells transiently overexpressing caspase-6 (Homo sapiens, UniProt Q86YZ3); conditions: Probe; protein HRNR Q86YZ3
[18] = target: proteins of HEK293T cells transiently overexpressing caspase-6 (Homo sapiens, UniProt Q99460); conditions: protein PSMD1 (Q99460); exp_ref Probe; analysis C6
[19] = target: proteins of HEK293T cells transiently overexpressing caspase-6 (Homo sapiens, UniProt Q9BZZ5); conditions: exp_ref Probe; protein API5 (Q9BZZ5); analysis C6
Chain of proteins of HEK293T cells transiently overexpressing caspase-6 (Homo sapiens, UniProt Q9BZZ5) (Q9BZZ5 whole entry): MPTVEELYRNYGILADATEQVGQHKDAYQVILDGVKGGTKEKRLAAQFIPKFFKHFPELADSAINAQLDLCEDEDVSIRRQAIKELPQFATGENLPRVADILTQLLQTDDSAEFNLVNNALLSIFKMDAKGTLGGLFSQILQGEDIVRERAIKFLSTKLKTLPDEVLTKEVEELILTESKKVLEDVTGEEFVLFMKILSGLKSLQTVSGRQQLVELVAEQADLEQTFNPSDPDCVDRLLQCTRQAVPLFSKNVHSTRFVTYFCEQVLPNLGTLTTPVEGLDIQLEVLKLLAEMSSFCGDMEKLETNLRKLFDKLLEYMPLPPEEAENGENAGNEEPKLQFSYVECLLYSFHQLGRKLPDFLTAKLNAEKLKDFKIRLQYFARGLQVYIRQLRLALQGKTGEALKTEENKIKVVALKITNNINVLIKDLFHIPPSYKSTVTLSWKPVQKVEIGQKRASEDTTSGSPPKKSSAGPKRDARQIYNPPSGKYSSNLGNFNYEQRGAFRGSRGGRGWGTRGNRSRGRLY

[20] = target: proteins of HEK293T cells transiently overexpressing caspase-6 (Homo sapiens, UniProt Q9NNW7); conditions: Probe; protein TXNRD2 Q9NNW7
Chain of proteins of HEK293T cells transiently overexpressing caspase-6 (Homo sapiens, UniProt Q9NNW7) (Q9NNW7 37-524): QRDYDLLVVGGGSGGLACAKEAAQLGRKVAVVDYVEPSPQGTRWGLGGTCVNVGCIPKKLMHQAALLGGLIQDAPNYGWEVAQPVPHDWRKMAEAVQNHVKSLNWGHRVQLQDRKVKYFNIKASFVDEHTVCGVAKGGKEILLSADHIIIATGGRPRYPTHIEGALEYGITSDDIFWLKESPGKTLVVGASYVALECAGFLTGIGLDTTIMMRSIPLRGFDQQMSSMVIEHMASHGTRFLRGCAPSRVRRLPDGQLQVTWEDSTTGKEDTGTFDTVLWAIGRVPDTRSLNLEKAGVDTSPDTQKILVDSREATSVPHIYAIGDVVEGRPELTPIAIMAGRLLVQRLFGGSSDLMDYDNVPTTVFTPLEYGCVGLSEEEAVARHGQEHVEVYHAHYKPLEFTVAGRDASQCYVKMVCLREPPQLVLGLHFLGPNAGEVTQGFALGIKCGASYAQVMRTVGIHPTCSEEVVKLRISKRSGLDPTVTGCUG

[21] = target: proteins of HEK293T cells transiently overexpressing caspase-6 (Homo sapiens, UniProt Q9NVX2); conditions: Probe; protein NLE1 Q9NVX2
Chain of proteins of HEK293T cells transiently overexpressing caspase-6 (Homo sapiens, UniProt Q9NVX2) (Q9NVX2 whole entry): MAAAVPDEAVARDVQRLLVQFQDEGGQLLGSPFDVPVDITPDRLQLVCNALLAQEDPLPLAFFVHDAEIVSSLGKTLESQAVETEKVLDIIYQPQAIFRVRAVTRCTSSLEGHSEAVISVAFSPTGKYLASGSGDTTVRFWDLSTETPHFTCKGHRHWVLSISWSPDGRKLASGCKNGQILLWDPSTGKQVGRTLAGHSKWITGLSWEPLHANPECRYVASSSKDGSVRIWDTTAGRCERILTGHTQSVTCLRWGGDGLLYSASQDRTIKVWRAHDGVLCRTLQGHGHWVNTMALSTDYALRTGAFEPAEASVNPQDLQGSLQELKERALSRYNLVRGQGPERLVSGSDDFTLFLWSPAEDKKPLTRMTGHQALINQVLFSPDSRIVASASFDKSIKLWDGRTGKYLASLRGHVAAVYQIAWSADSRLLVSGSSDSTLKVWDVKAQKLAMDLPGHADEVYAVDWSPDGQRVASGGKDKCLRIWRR

[22] = target: proteins of HEK293T cells transiently overexpressing caspase-6 (Homo sapiens, UniProt Q9UQE7); conditions: protein SMC3 (Q9UQE7), analysis C6
Chain of proteins of HEK293T cells transiently overexpressing caspase-6 (Homo sapiens, UniProt Q9UQE7) (Q9UQE7 whole entry): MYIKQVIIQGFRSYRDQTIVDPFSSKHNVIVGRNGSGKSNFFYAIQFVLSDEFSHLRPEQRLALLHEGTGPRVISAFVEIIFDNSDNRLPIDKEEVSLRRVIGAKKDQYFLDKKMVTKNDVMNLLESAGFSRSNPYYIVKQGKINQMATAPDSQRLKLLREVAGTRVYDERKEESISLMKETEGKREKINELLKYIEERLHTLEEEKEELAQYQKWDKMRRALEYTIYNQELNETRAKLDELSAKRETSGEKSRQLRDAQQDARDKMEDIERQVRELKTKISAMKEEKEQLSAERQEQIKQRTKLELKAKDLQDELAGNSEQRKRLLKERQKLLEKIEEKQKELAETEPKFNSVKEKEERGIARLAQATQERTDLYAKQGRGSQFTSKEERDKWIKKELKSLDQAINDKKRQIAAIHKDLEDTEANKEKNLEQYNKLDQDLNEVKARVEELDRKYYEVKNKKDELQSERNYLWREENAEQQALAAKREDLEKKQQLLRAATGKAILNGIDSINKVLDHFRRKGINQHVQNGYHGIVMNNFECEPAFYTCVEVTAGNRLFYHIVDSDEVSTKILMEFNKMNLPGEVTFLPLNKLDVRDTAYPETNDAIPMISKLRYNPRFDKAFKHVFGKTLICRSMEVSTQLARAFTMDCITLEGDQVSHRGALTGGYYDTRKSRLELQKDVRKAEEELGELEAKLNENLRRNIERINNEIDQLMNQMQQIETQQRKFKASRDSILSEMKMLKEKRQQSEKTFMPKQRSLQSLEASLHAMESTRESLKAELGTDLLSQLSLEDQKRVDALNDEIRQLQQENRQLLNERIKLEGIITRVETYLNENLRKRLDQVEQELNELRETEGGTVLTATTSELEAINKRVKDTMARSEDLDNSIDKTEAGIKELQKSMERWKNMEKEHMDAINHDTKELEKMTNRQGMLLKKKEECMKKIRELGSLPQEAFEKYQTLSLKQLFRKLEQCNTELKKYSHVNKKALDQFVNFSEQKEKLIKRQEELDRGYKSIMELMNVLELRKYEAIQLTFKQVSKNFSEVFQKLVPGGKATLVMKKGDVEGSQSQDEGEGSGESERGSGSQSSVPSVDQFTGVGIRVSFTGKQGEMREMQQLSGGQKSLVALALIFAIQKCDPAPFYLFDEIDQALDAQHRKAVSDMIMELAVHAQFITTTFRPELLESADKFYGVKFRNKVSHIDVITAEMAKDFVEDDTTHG

[23] = target: proteins of HEK293T cells transiently overexpressing caspase-6 (Homo sapiens, UniProt Q9Y230); conditions: protein RUVBL2 (Q9Y230); exp_ref Probe; analysis C6

In the case of C#CCOc1ccc([C@@H]2C[C@@H](C(=O)Nc3ccc(OC(F)(F)F)cc3)CN(S(=O)(=O)C=C)C2)cc1 (relative stereo) [13-t], the enrich.exp.med [1] is reported as -0.08092, the enrich.exp.med [2] is reported as 0.4718 and the enrich.exp.med ([3]; exp_ref Probe, analysis C6) is reported as 1.036. For the same compound, the enrich.exp.med.lin [3] was 2.05, the enrich.exp.med.log2 [3] was 1.036 and the enrich.exp.med [4] was -0.1215. It also gave an enrich.exp.med [5] of -0.9693, an enrich.exp.med [6] of -5.169 and an enrich.exp.med [7] of 0.7344. The enrich.exp.med.lin [8] was 3.054, the enrich.exp.med.log2 [8] was 1.611 and the enrich.exp.med ([8]; exp_ref Probe, analysis C6) was 1.611. It also gave an enrich.exp.med [9] of 0.5362, an enrich.exp.med [10] of 0.8215 and an enrich.exp.med [11] of -0.3746. For the same compound, the enrich.exp.med ([12]; exp_ref Probe, analysis C6) was 0.6055, the enrich.exp.med.lin [12] was 1.522 and the enrich.exp.med.log2 [12] was 0.6055. It also gave an enrich.exp.med [13] of -0.1743, an enrich.exp.med [14] of -0.1551 and an enrich.exp.med [15] of -0.1545. For the same compound, the enrich.exp.med ([16]; exp_ref Probe, analysis C6) was 1.027, the enrich.exp.med.lin [16] was 2.037 and the enrich.exp.med.log2 [16] was 1.027. It also gave an enrich.exp.med [17] of -8.887, an enrich.exp.med [18] of 1.73 and an enrich.exp.med [19] of 0.9484. It also gave an enrich.exp.med [20] of -0.4404, an enrich.exp.med [21] of -1.769 and an enrich.exp.med.lin ([22]; Expt Probe) of 14.5893. The enrich.exp.med.log2 ([22]; Expt Probe) was 3.867, the enrich.exp.med ([22]; exp_ref Probe) was 3.867 and the enrich.exp.med [23] was 1.2493.
